According to patent US11286236B2, “Compound, agent and composition for the suppression of cancer growth” (Vector Vitale IP LLC, priority 2018, dated 2022):

System: Ehrlich ascites carcinoma
Experiment: In vivo antitumor activity against Ehrlich ascites carcinoma
Set-up: species or system mouse
Conditions: for Number of animals in the group with tumor / Number of animals in the group without tumor: 14 mice per group
Experimental: Outbred mice were administered Ehrlich ascites carcinoma cells (EAC) intraperitoneally (IP) at a dose of 2.5×10^5 cells in 0.25 ml of normal saline solution. The compounds under study, 1)^85RbeE2, was dissolved in deuterium-depleted water and 2) Cisplatin (Teva, the Netherlands), was dissolved in normal saline solution. The drugs were administered starting from the first day after mice were inoculated with tumor cells, using a microinjection syringe, at the following doses: 1)^85Rbe-E2 at a dose of 750 μg/mouse (weighing 20 g) in a volume of 0.3 ml as 3 IP injections (1 injection—250 μg/mouse) on the 1st, 4th and 7th day of the experiment; 2) Cisplatin at a dose of 4.5 mg/kg or 1.5 mg/kg as 3 IP injections on the 2nd, 5th and 8th day of the experiment. The dynamics of tumor growth in the experimental animals was observed (based on the volume of ascites in the peritoneal cavity) after the tumor cell inoculation and for 31 days of the experiment. On the 15th and 22nd day after IP administration of tumor cells, all the fluid accumulated in each animal's abdomen was extracted and the total number of live/dead cells in each mouse was determined. In addition, some mice were used to assess a survival rate of animals in the experiment.
Laboratory animals. 84 outbred female 10 to 12-week old mice weighing 22-26 g were used in the experimental study. The animals were obtained from the animal vivarium at R.E. Kavetsky IEPOR NASU. […] The animals were maintained in plastic cages, under natural light-dark cycles, fed standard food and allowed free access to food and tap water.
Tumor model. Ascites strain of Ehrlich ascites carcinoma maintained on outbred mice obtained from the cell and tissue line bank at R.E. Kavetsky IEPOR NASU was used in the experiment. To prepare the strain for injection, tumor cells derived from ascitic fluid were placed in normal saline solution and cellularity of the suspension was assessed in a hemocytometer and adjusted to a concentration of 1·10^6 cells/ml with saline solution. The tumor cells were inoculated by injecting 250 mcl of cell suspension from the tumor (0.25×10^6 cells/mouse) into the peritoneal cavity of laboratory animals.
The drugs were administered IP every other day, using a microinjection syringe, at doses specified above as a series of 3 injections of each compound according to the following scheme: ^85Rbe-E2 at a dose of 250 μg/mouse weighing 20 g+CP at a dose of […] 24 hours later (for groups (EAC+CP(4.5)) and (EAC+^85Rbe-E2+CP(4.5)) or […] (for groups (EAC+CP(1.5)) and (EAC+^85Rbe-E2+CP(1.5)) in a volume of 0.25 ml of saline solution (6 injections in total during 8 days).
The tumor growth dynamics in the laboratory animals was observed by daily control of the volume of ascitic fluid in the abdominal cavity of mice starting from the tumor inoculation and for 31 days of the experiment. The dynamics of ascites growth both in control and experimental groups was assessed visually using a 10-point scale, where 0 points were the absence of tumor growth and 10 points were the maximum increase in the size of the abdomen of the mouse with ascites (one point was 0.6 cm of the mean diameter of the mouse abdomen filled with the fluid).
Furthermore, on the 15th and 22nd day after intraperitoneal injection of tumor cells, all ascitic fluid was removed from the abdomen in 2 or 3 animals from each group by washing their peritoneal cavity with saline solution, and live/dead EAC cells were counted in each mouse using the traditional vital dye trypan blue (HyClon, USA) and a hemocytometer.
X=((a)/80)×10^6, where X is the number of cells in 1 ml and a is the number of cells counted in 5 large diagonal squares of the hemocytometer.
7 or 8 mice from each group were used to assess their survival in the experiment. The total lifespan observation time was 31 days from the moment of inoculation of tumor cells.
Statistical data processing. […]

[1] = CP 1.5 mg/kg IP total (combination: + 85Rbe-E2 750 μg/mouse)
[2] = CP 4.5 mg/kg IP total (combination: + 85Rbe-E2 750 μg/mouse)
[3] = Day 15, CP 1.5 mg/kg IP total (combination: + 85Rbe-E2 750 μg/mouse)
[4] = Day 15, CP 4.5 mg/kg IP total (combination: + 85Rbe-E2 750 μg/mouse)
[5] = Day 22, CP 1.5 mg/kg IP total (combination: + 85Rbe-E2 750 μg/mouse)
[6] = Day 22, CP 4.5 mg/kg IP total (combination: + 85Rbe-E2 750 μg/mouse)

## N.N.[Cl][Pt][Cl] [cisplatin]
[1]
  Animals without tumor, %: 0%
  Number of animals in the group with tumor: 14
  Number of animals in the group without tumor: 0
[2]
  Animals without tumor, %: 0%
  Number of animals in the group with tumor: 14
  Number of animals in the group without tumor: 0
[3]
  Number of dead cells/mouse, %: 9.5 ± 2.8%
  Number of live cells/mouse, ×10^6 (M ± m): 1188 ± 116 ×10^6
  Volume of ascites: 5.2 ± 1.3 mL
[4]
  Number of dead cells/mouse, %: <1%
  Number of live cells/mouse, ×10^6 (M ± m): 33.5 ± 11 ×10^6
  Volume of ascites: 0.4 ± 0.1 mL
[5]
  Number of dead cells/mouse, %: 11 ± 1%
  Number of live cells/mouse, ×10^6 (M ± m): 1154 ± 429 ×10^6
  Volume of ascites: 14.4 ± 8.7 mL
[6]
  Number of dead cells/mouse, %: <3%
  Number of live cells/mouse, ×10^6 (M ± m): 430 ± 250 ×10^6
  Volume of ascites: 2.8 ± 1.3 mL
Cisplatin 1.5 mg/kg (combination: + 85Rbe-E2)
  Last day with statistically significant inhibition of EAC growth vs control: 9 days
Cisplatin 1.5 mg/kg mono-regime, only up to the 10th day
  Suppression of tumor growth vs control: 32%
Cisplatin 4.5 mg/kg (combination: + 85Rbe-E2 total 750 mg/mouse as printed), throughout the observation period
  Suppression of tumor growth / decrease in tumor size vs control, average: 51.3%
Day 0, CP 1.5 mg/kg IP total (combination: + 85Rbe-E2 750 μg/mouse)
  Survival, percent of mice: 100%
Day 0, CP 4.5 mg/kg IP total (combination: + 85Rbe-E2 750 μg/mouse)
  Survival, percent of mice: 100%
Day 9, CP 1.5 mg/kg IP total (combination: + 85Rbe-E2 750 μg/mouse IP total)
  Size of mouse abdomen, points: 3.8 ± 0.8 points
Day 9, CP 4.5 mg/kg IP total (combination: + 85Rbe-E2 750 μg/mouse IP total)
  Size of mouse abdomen, points: 2.6 ± 0.2 points
Day 13, CP 1.5 mg/kg IP total (combination: + 85Rbe-E2 750 μg/mouse IP total)
  Size of mouse abdomen, points: 5.9 ± 1.1 points
Day 13, CP 4.5 mg/kg IP total (combination: + 85Rbe-E2 750 μg/mouse IP total)
  Size of mouse abdomen, points: 3.2 ± 0.3 points
Day 15, CP 1.5 mg/kg IP total (combination: + 85Rbe-E2 750 μg/mouse IP total)
  Size of mouse abdomen, points: 6.9 ± 0.4 points
Day 15, CP 1.5 mg/kg IP total (combination: + 85Rbe-E2 750 μg/mouse)
  Survival, percent of mice: 100%
Day 15, CP 4.5 mg/kg (combination: + 85Rbe-E2), p<0.05
  Number of live cells in ascites as fraction of the control: approximately 1/53
Day 15, CP 4.5 mg/kg IP total (combination: + 85Rbe-E2 750 μg/mouse IP total)
  Size of mouse abdomen, points: 3.1 ± 0.4 points
Day 15, CP 4.5 mg/kg IP total (combination: + 85Rbe-E2 750 μg/mouse)
  Survival, percent of mice: 100%
Day 15, EAC+CP(4.5) group, p<0.05
  Number of live cells in ascites, times smaller than in the control: 52 times
Day 17, CP 1.5 mg/kg IP total (combination: + 85Rbe-E2 750 μg/mouse IP total)
  Size of mouse abdomen, points: 7.4 ± 0.6 points
Day 17, CP 1.5 mg/kg IP total (combination: + 85Rbe-E2 750 μg/mouse)
  Survival, percent of mice: 100%
Day 17, CP 4.5 mg/kg IP total (combination: + 85Rbe-E2 750 μg/mouse IP total)
  Size of mouse abdomen, points: 3.4 ± 0.4 points
Day 17, CP 4.5 mg/kg IP total (combination: + 85Rbe-E2 750 μg/mouse)
  Survival, percent of mice: 87.5%
Day 19, CP 1.5 mg/kg IP total (combination: + 85Rbe-E2 750 μg/mouse)
  Survival, percent of mice: 100%
Day 19, CP 4.5 mg/kg IP total (combination: + 85Rbe-E2 750 μg/mouse)
  Survival, percent of mice: 87.5%
Day 20, CP 1.5 mg/kg IP total (combination: + 85Rbe-E2 750 μg/mouse IP total)
  Size of mouse abdomen, points: 8.1 ± 0.6 points
Day 20, CP 4.5 mg/kg IP total (combination: + 85Rbe-E2 750 μg/mouse IP total)
  Size of mouse abdomen, points: 4.8 ± 0.5 points
Day 22, CP 1.5 mg/kg IP total (combination: + 85Rbe-E2 750 μg/mouse IP total)
  Size of mouse abdomen, points: 8.2 ± 0.8 points
Day 22, CP 1.5 mg/kg IP total (combination: + 85Rbe-E2 750 μg/mouse)
  Survival, percent of mice: 100%
Day 22, CP 4.5 mg/kg IP total (combination: + 85Rbe-E2 750 μg/mouse IP total)
  Size of mouse abdomen, points: 4.7 ± 0.7 points
Day 22, CP 4.5 mg/kg IP total (combination: + 85Rbe-E2 750 μg/mouse)
  Survival, percent of mice: 75%
Day 24, CP 1.5 mg/kg IP total (combination: + 85Rbe-E2 750 μg/mouse IP total)
  Size of mouse abdomen, points: 8.6 ± 0.8 points
Day 24, CP 1.5 mg/kg IP total (combination: + 85Rbe-E2 750 μg/mouse)
  Survival, percent of mice: 100%
Day 24, CP 4.5 mg/kg IP total (combination: + 85Rbe-E2 750 μg/mouse IP total)
  Size of mouse abdomen, points: 5.2 ± 0.9 points
Day 24, CP 4.5 mg/kg IP total (combination: + 85Rbe-E2 750 μg/mouse)
  Survival, percent of mice: 75%
Day 25, CP 1.5 mg/kg IP total (combination: + 85Rbe-E2 750 μg/mouse)
  Survival, percent of mice: 100%
Day 25, CP 4.5 mg/kg IP total (combination: + 85Rbe-E2 750 μg/mouse)
  Survival, percent of mice: 75%
Day 26, CP 1.5 mg/kg IP total (combination: + 85Rbe-E2 750 μg/mouse)
  Survival, percent of mice: 100%
Day 26, CP 4.5 mg/kg IP total (combination: + 85Rbe-E2 750 μg/mouse)
  Survival, percent of mice: 75%
Day 27, CP 1.5 mg/kg IP total (combination: + 85Rbe-E2 750 μg/mouse IP total)
  Size of mouse abdomen, points: 8.4 ± 1 points
Day 27, CP 1.5 mg/kg IP total (combination: + 85Rbe-E2 750 μg/mouse)
  Survival, percent of mice: 87.5%
Day 27, CP 4.5 mg/kg IP total (combination: + 85Rbe-E2 750 μg/mouse IP total), listed as CP
  Size of mouse abdomen, points: 5.2±0.9 points
Day 27, CP 4.5 mg/kg IP total (combination: + 85Rbe-E2 750 μg/mouse)
  Survival, percent of mice: 75%
Day 28, CP 1.5 mg/kg IP total (combination: + 85Rbe-E2 750 μg/mouse)
  Survival, percent of mice: 75%
Day 28, CP 4.5 mg/kg IP total (combination: + 85Rbe-E2 750 μg/mouse)
  Survival, percent of mice: 75%
Day 29, CP 1.5 mg/kg IP total (combination: + 85Rbe-E2 750 μg/mouse IP total)
  Size of mouse abdomen, points: 8.4 ± 1 points
Day 29, CP 1.5 mg/kg IP total (combination: + 85Rbe-E2 750 μg/mouse), listed as CP
  Survival, percent of mice: 50%
Day 29, CP 4.5 mg/kg IP total (combination: + 85Rbe-E2 750 μg/mouse IP total)
  Size of mouse abdomen, points: 5.4 ± 0.9 points
Day 29, CP 4.5 mg/kg IP total (combination: + 85Rbe-E2 750 μg/mouse), listed as CP
  Survival, percent of mice: 75%
Day 31, CP 1.5 mg/kg IP total (combination: + 85Rbe-E2 750 μg/mouse IP total)
  Size of mouse abdomen, points: 7.9 ± 1.4 points
Day 31, CP 1.5 mg/kg IP total (combination: + 85Rbe-E2 750 μg/mouse), listed as CP
  Survival, percent of mice: 37.5%
Day 31, CP 4.5 mg/kg IP total (combination: + 85Rbe-E2 750 μg/mouse IP total)
  Size of mouse abdomen, points: 6 ± 1.3 points
Day 31, CP 4.5 mg/kg IP total (combination: + 85Rbe-E2 750 μg/mouse), listed as CP
  Survival, percent of mice: 62.5%
